Legend:
[1] = Oral bioavailability in rat; format: ADME, organism-based; settings: in vivo
[2] = Apparent permeability across apical to basolateral side and basolateral to apical side in human Caco-2 cells at 5 uM measured up to 60 mins by LC-MS/MS analysis; format: ADME, cell-based

Compound	bioavailability [1]	Papp at 1 h, 5 µM [2]
COc1ccc2c(c1OCc1ccccc1)CC(C(=O)O)N(C(=O)C(c1ccccc1)c1ccccc1)C2 (centres undefined)	33%	–
CCCCOC(=O)NS(=O)(=O)c1sc(CC(C)C)cc1-c1cccc(Cn2ccnc2)c1	–	3.4 ×10⁻⁶ cm/s
CCCCOC(=O)NS(=O)(=O)c1sc(CC(C)C)cc1-c1cccc(C(=O)Cn2cnc3cc(C)c(C)cc32)c1	–	0.4 ×10⁻⁶ cm/s
COc1ccc2c(c1OCc1ccccc1)C[C@@H](C(=O)O)N(C(=O)C(c1ccccc1)c1ccccc1)C2 [OLODANRIGAN]	–	1.8 ×10⁻⁶ cm/s

Reference: ChEMBL document CHEMBL4673354, “N-(Methyloxycarbonyl)thiophene sulfonamides as high affinity AT2 receptor ligands” (Bioorg Med Chem, 2021)
